The values below are quoted from earlier work in patent publication US20190380992A1 (Biogen MA Inc., priority 2014, published 2019).

Where a name gives a salt, the structure may show the parent alone.

Data set [1] relates to multiple sclerosis patients. As to conditions: second phase 3 study; glatiramer acetate as active reference.
In data set [2] the test system is patients initiating DMF. As to conditions: DEFINE and CONFIRM studies.
Data set [3] deals with multiple sclerosis patients. As to conditions: compared with placebo after two years of treatment.

Regarding `COC(=O)/C=C/C(=O)OC` [DMF, dimethyl fumarate], the “support of the DEFINE findings” value in data set [1] was “findings were supported”. The safety profile result in data set [2] is “acceptable safety profile”. For the same compound, in data set [3], the “accumulation of disability progression” value is given as “significantly reduced”; the clinical relapses entry is “significantly reduced”; the “lesion number and volume” value was “significantly reduced”.
